Laboratory results reported in article PMC12475274, “Harnessing indole scaffolds to identify small-molecule IRE1α inhibitors modulating XBP1 mRNA splicing” (Nature Communications, 2025).
Several values for one entry are separate records, joined by “and”; a condition that tells them apart may be missing. Equal values may be shown once. Read-outs that look alike come from different tables or passages of the source.

Legend:
[1] = target: T1, dephosphorylated IRE1α (547–977) (Homo sapiens, UniProt O75460); test: FRET-based IRE1α RNase activity assay, dephosphorylated IRE1α; assay type: biochemical; details: for inhibition at 50 µM: read-out: IRE1α inhibition%
T1 construct: Human IRE1α kinase and RNase domain (residues 547–977) was subcloned into pLIB plasmid; His tag (with TEV cleavage site) (N, cleaved yes); made in house; host or cells: Sf9 insect cells, baculovirus (Bac-to-Bac)
T1 sequence (O75460 547-977): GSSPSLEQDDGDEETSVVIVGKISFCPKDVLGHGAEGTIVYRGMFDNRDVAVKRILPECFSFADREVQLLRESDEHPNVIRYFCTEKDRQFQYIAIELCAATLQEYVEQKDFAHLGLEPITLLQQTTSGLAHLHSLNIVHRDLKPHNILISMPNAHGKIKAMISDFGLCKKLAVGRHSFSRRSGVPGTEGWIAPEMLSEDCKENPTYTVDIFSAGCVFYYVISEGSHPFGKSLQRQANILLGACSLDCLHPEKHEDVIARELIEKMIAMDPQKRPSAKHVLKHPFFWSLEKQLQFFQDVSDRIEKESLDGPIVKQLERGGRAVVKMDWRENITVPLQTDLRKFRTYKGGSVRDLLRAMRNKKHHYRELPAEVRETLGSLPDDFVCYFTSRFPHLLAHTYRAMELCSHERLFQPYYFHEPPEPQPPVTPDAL
Procedure: (§1) Human IRE1α kinase and RNase domain (residues 547–977) was subcloned into pLIB plasmid with a His tag and TEV cleavage site, and expressed using Bac-to-Bac expression system. The primers used are listed in Supplementary Table S3. The protein purification was performed following established procedures. Briefly, Sf9 cells were infected with baculovirus and incubated at 27 °C 110 rpm for 72 h. The cells were collected by centrifugation at 4000 × g for 15 min and the cell pellet was resuspended in lysis buffer (50 mM HEPES pH 7.5, 300 mM NaCl, 10% glycerol, 1 mM MgCl2, 1 mM TCEP, 5 mM imidazole), then supplemented with 1:10,000 benzonase (Sigma, E1014), 1 tablet/25 mL […]™ Protease Inhibitor Cocktail tablets (Sigma, S8830) and 1 mM PMSF before lysed by sonication at 4 °C. […] The protein elution was incubated with TEV protease to remove His tag at 4 °C overnight. Then the sample was diluted 1:6 in buffer (50 mM HEPES pH 7.5, 1 mM TCEP, 5% glycerol) and loaded onto a 5 mL pre-packaged Q HP anion exchange column (Cytiva, HiTrap Q HP) pre-equilibrated with QA buffer (50 mM HEPES pH 7.5, 50 mM NaCl, 1 mM TCEP, 5% glycerol). The unphosphorylated and phosphorylated protein was separated by eluting the protein with a very shallow gradient with 0-30% buffer QB (50 mM HEPES pH 7.5, 1 M NaCl, 1 mM TCEP, 5% glycerol) over 80 CV. Different peaks were collected separately and verified by LC-MS. The fully phosphorylated fraction was collected and further purified by size exclusion chromatography (Cytiva, HiLoad 16/600 Superdex 200 pg,) with SEC buffer (25 mM HEPES pH 7.5, 250 mM NaCl, 1 mM TCEP, 10% glycerol) and fractioned as monomeric peak. The rest protein fraction from the Q HP anion exchange column was incubated with Lambda protein phosphatase (New England BioLabs, P0753S) overnight at 4 °C, the dephosphorylation was confirmed by LC-MS. The unphosphorylated protein was further purified by size exclusion chromatography with the SEC buffer described above. The purified phosphorylated (p-IRE1α) and dephosphorylated (IRE1α) protein aliquots were stored at −80 °C for future usage.
The dual-labeled RNA substrate with a FAM at 5’ and the BHQ-1 at 3’ containing the XBP1 sequence (5′FAM-[…]-3′BHQ1) was purchased from Integrated DNA Technologies (IDT). The FRET-based IRE1α RNase activity assay was carried out in reaction buffer containing 20 mM HEPES pH 7.5, 50 mM KOAc, 1 mM MgOAc2, 1 mM DTT, 0.05% v/v TritonX-100, at a total reaction volume of 20 μL in a 384-well black plate (4514, Corning). For unphosphorylated IRE1α (IRE1α), a final concentration of 40 nM IRE1α protein and 100 nM RNA substrate was used. For phosphorylated IRE1 (p-IRE1α), a final concentration of 4 nM p-IRE1α protein and 200 nM RNA substrate was used. The indicated compound and IRE1α protein were incubated for 30 min at room temperature before the substrate was added to the reaction. The plate was then kinetically read over one hour at room temperature using a TECAN Spark plate reader. The measurement was carried out using the fluorescence top reading mode at the excitation wavelength of 485 nm and the emission wavelength of 535 nm with a 10 nm excitation and emission bandwidth. The linear part of the reaction curve was adopted and fitted with sample linear regression to obtain the slope, and the slope was adopted to reflect the reaction rate. The inhibition % was calculated by using the equation: inhibition% = 100 × (slope of DMSO control – slope of the sample)/(slope of DMSO control – slope of blank control), DMSO control: DMSO with protein and RNA substrate; Blank control: DMSO with RNA substrate. The IC50 values were calculated using the concentration-response model in GraphPad Prism 9. […]

[2] = target: T2, phosphorylated IRE1α (p-IRE1α) (Homo sapiens, UniProt O75460); test: FRET-based IRE1α RNase activity assay, phosphorylated IRE1α; assay type: biochemical; details: for inhibition at 50 µM: FRET assay at 50 μM, read-out: p-IRE1α inhibition%
T2 construct: Human IRE1α kinase and RNase domain (residues 547–977) was subcloned into pLIB plasmid; His tag (with TEV cleavage site) (N, cleaved yes); made in house; host or cells: Sf9 insect cells, baculovirus (Bac-to-Bac)
T2 sequence (O75460 547-977): as above
Procedure: as §1
The dual-labeled RNA substrate with a FAM at 5’ and the BHQ-1 at 3’ containing the XBP1 sequence (5′FAM-[…]-3′BHQ1) was purchased from Integrated DNA Technologies (IDT). The FRET-based IRE1α RNase activity assay was carried out in reaction buffer containing 20 mM HEPES pH 7.5, 50 mM KOAc, 1 mM MgOAc2, 1 mM DTT, 0.05% v/v TritonX-100, at a total reaction volume of 20 μL in a 384-well black plate (4514, Corning). For unphosphorylated IRE1α (IRE1α), a final concentration of 40 nM IRE1α protein and 100 nM RNA substrate was used. For phosphorylated IRE1 (p-IRE1α), a final concentration of 4 nM p-IRE1α protein and 200 nM RNA substrate was used. The indicated compound and IRE1α protein were incubated for 30 min at room temperature before the substrate was added to the reaction. The plate was then kinetically read over one hour at room temperature using a TECAN Spark plate reader. The measurement was carried out using the fluorescence top reading mode at the excitation wavelength of 485 nm and the emission wavelength of 535 nm with a 10 nm excitation and emission bandwidth. The linear part of the reaction curve was adopted and fitted with sample linear regression to obtain the slope, and the slope was adopted to reflect the reaction rate. The inhibition % was calculated by using the equation: inhibition% = 100 × (slope of DMSO control – slope of the sample)/(slope of DMSO control – slope of blank control), DMSO control: DMSO with protein and RNA substrate; Blank control: DMSO with RNA substrate. The IC50 values were calculated using the concentration-response model in GraphPad Prism 9.

[3] = FRET assay, RNase activity, mean (± SEM), read-out: IRE1α IC50
[4] = FRET assay, source data, unit from Fig. 3 / sheet Fig. 2b, read-out: IRE1a IC50, individual replicates (n1-n4)
[5] = FRET assay, RNase activity, mean (± SEM), read-out: p-IRE1α IC50
[6] = FRET assay, source data, unit from Fig. 3, read-out: p-IRE1a IC50, individual replicates (n1-n4)
[7] = FRET assay at 50 μM, mean (± SEM)
[8] = FRET assay, RNase activity, mean (± SEM)
[9] = IRE1a, individual replicates (n1-n4), Supplementary Fig. 2b, 2c, read-out: IC50
[10] = IRE1a, mean, Supplementary Fig. 2b, 2c, read-out: IC50, mean
[11] = p-IRE1a, individual replicates (n1-n3), Supplementary Fig. 2b, 2c, read-out: IC50
[12] = p-IRE1a, mean, Supplementary Fig. 2b, 2c, read-out: IC50, mean

Row | Structure (SMILES) | IC50 [1, 3] | IC50 [1, 4] | IC50 [2, 5] [µM] | IC50 [2, 6] | further results
1 | Cc1c(CCC(=O)O)c2cc(OC(F)(F)F)ccc2n1C(=O)c1ccccc1 [IA148] | 0.57 ± 0.36 µM | 0.524 µM and 0.238 µM and 0.957 µM | 0.94 | 0.986 µM and 0.798 µM and 1.02 µM | reduction in IRE1α inhibition relative to IA64 ([1]; FRET IC50): ~ 19 fold
2 | COc1ccc2c(c1)c(Cc1ccccc1)c(C)n2C(=O)c1ccc(Cl)cc1 [cms09] | – | – | – | – | inhibition at 50 µM [1, 7]: < 30%; inhibition at 50 µM ([2]; mean (± SEM)): < 30%
3 | COc1ccc2c(c1)c(Cc1ccc(O)cc1)c(C)n2C(=O)c1ccc(Cl)cc1 [cms10] | – | – | – | – | inhibition at 50 µM [1, 7]: < 30%; inhibition at 50 µM ([2]; mean (± SEM)): < 30%
4 | Cc1c(CCC(=O)O)c2cc(-c3ccoc3)ccc2n1C(=O)c1ccccc1 [IA138] | 1.27 µM | – | 2.03 | – | –
5 | Cc1c(CCC(=O)O)c2ccccc2n1C(=O)c1ccccc1 [IA104] | 0.34 µM | 0.173 µM and 0.171 µM and 0.675 µM | 1.05 | 0.446 µM and 0.627 µM and 2.07 µM | –
6 | COc1ccc2c(c1)c(CCC(=O)O)c(C)n2C(=O)c1ccc(Br)cc1 [IA02] | 1.46 µM | 0.869 µM and 1.33 µM and 2.17 µM | 1.96 | 2.09 µM and 2.1 µM and 1.67 µM | –
7 | COc1ccc2c(c1)c(CCC(=O)O)c(C)n2C(=O)N(C)C [IA76] | > 20 µM | – | > 20 | – | IRE1α IC50 [1, 8]: IC₅₀ not reached; p-IRE1α IC50 [2, 8]: IC₅₀ not reached
8 | O=C(O)Cc1c[nH]c2ccccc12 [auxin, reference compound] | – | – | – | – | IRE1α inhibition% [1, 7]: ≤ 50%
9 | COc1ccc2c(c1)c(C(C)=O)c(C)n2C(=O)c1ccc(Cl)cc1 [cms08] | – | – | – | – | inhibition at 50 µM [1, 7]: < 30%; inhibition at 50 µM ([2]; mean (± SEM)): < 30%
10 | Cc1c(CCC(=O)O)c2cc(F)ccc2n1C(=O)c1cccc(C#N)c1 [IA47] | – | – | – | – | IC50 [1, 9]: 4.7 µM and 0.983 µM and 3.62 µM and 1.97 µM; IC50 [1, 10]: 2.82 µM; IC50 [2, 11]: 5.26 µM and 7.8 µM and 3.64 µM; IC50 [2, 12]: 5.57 µM
11 | COc1ncc(-c2ccc3c(c2)c(CCC(=O)O)c(C)n3C(=O)c2ccccc2)c(OC)n1 [IA143] | 14.1 µM | 19.6 µM and 14 µM and 8.76 µM | 39.4 | 40.5 µM and 47.1 µM and 30.6 µM | –
12 | CCOC(=O)Cc1c(C)n(C(=O)c2ccc(Cl)cc2)c2ccc(OC)cc12 [cms05] | – | – | – | – | inhibition at 50 µM [1, 7]: < 30%; inhibition at 50 µM ([2]; mean (± SEM)): < 30%
13 | Cc1c(CCC(=O)O)c2cc(-c3cn[nH]c3)ccc2n1C(=O)c1ccccc1 [IA158] | 0.7 µM | 0.708 µM and 0.693 µM | 2.34 | 3.18 µM and 1.5 µM | –
14 | Cc1c(CCC(=O)O)c2ccccc2n1C(=O)c1cccc(C#N)c1 [IA41] | – | – | – | – | IC50 [1, 9]: 2.32 µM and 4.34 µM and 2.12 µM; IC50 [1, 10]: 2.93 µM; IC50 [2, 11]: 4.9 µM and 0.768 µM; IC50 [2, 12]: 2.84 µM
15 | COc1ccc2[nH]c(C)c(CCC(=O)O)c2c1 [IA72] | > 20 µM | – | > 20 | – | IRE1α IC50 [1, 8]: IC₅₀ not reached; p-IRE1α IC50 [2, 8]: IC₅₀ not reached
16 | Cc1c(CCC(=O)O)c2cc(F)ccc2n1C(=O)c1cccs1 [IA48] | – | – | – | – | IC50 [1, 9]: 0.542 µM and 0.383 µM and 0.121 µM; IC50 [1, 10]: 0.35 µM; IC50 [2, 11]: 1.07 µM and 0.419 µM and 0.737 µM; IC50 [2, 12]: 0.74 µM
17 | Cc1c(CCC(=O)O)c2cc(-c3ccc(C(F)(F)F)cc3)ccc2n1C(=O)c1ccccc1 [IA145] | 13.4 µM | 14.1 µM and 14.2 µM and 11.9 µM | 43.2 | 40.7 µM and 46.9 µM and 42.1 µM | –
18 | Cc1noc(C)c1-c1ccc2c(c1)c(CCC(=O)O)c(C)n2C(=O)c1ccccc1 [IA142] | 1.61 µM | 2.69 µM and 1.1 µM and 1.04 µM | 4.68 | 4.81 µM and 5.54 µM and 3.68 µM | –
19 | COc1ccc2c(c1)c(CCC(=O)O)c(C)n2C(=O)N1CCOCC1 [IA77] | > 20 µM | – | > 20 | – | IRE1α IC50 [1, 8]: IC₅₀ not reached; p-IRE1α IC50 [2, 8]: IC₅₀ not reached
20 | Cc1c(CCC(=O)O)c2cc(-c3ccccc3C#N)ccc2n1C(=O)c1ccccc1 [IA159] | 6.22 µM and 6.23 µM | 5.53 µM and 6.93 µM | 28.3 | 34.9 µM and 21.7 µM | –
21 | Cc1c(CCC(=O)O)c2cc(Br)ccc2n1C(=O)c1cccs1 [IA44] | – | – | – | – | IC50 [1, 9]: 0.09 µM and 0.0912 µM and 0.0591 µM; IC50 [1, 10]: 0.08 µM; IC50 [2, 11]: 0.168 µM and 0.0345 µM; IC50 [2, 12]: 0.1 µM
22 | Cc1c(CCC(=O)O)c2cc(-c3ccncc3)ccc2n1C(=O)c1ccccc1 [IA153] | 2.16 µM | 2.9 µM and 1.77 µM and 1.82 µM | 11.6 | 12.4 µM and 15.4 µM and 6.99 µM | –
23 | COc1ccc2c(c1)c(CCC(=O)O)c(C)n2C(=O)c1ccc(F)cc1 [IA66] | 0.14 µM | 0.213 µM and 0.125 µM and 0.0827 µM | 0.2 | 0.124 µM and 0.115 µM and 0.353 µM | –
24 | Cc1c(CCC(=O)O)c2cc(-c3ccc(C(N)=O)cc3)ccc2n1C(=O)c1ccccc1 [IA152] | 12.1 µM | 10.8 µM and 12.5 µM and 13 µM | 43.1 | 46.9 µM and 49.8 µM and 32.5 µM | –
